Laboratory results from ChEMBL document CHEMBL4507269, “Data for DCP probe BAY-386” (2021).

Experiments:
[1] = biological target: Ribosomal protein S6 kinase alpha-1 (Homo sapiens) (UniProt Q15418); conditions: Compound concentration 1000.0 nM
[2] = biological target: Muscarinic acetylcholine receptor M3 (Homo sapiens) (UniProt P20309); conditions: Compound concentration 10.0 uM
[3] = biological target: Serine/threonine-protein kinase NIM1 (Homo sapiens) (UniProt Q8IY84); conditions: Compound concentration 1000.0 nM
Sequence of Serine/threonine-protein kinase NIM1 (Homo sapiens) (Q8IY84 whole entry): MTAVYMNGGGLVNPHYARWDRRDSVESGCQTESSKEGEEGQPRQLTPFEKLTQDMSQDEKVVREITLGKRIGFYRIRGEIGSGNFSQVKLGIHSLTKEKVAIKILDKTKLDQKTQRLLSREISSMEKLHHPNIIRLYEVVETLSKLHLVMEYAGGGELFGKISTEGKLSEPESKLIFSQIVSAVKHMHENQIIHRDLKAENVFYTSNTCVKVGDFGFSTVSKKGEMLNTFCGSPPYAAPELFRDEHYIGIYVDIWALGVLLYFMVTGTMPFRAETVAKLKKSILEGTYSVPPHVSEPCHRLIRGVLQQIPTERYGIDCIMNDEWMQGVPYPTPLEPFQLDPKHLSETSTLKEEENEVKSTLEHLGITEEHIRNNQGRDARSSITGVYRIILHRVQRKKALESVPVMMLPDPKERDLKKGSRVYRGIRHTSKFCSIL

[4] = biological target: Serine/threonine-protein kinase ULK1 (Homo sapiens) (UniProt O75385); conditions: Compound concentration 1000.0 nM
[5] = biological target: Death-associated protein kinase 2 (Homo sapiens) (UniProt Q9UIK4); conditions: Compound concentration 1000.0 nM
[6] = biological target: Calcium/calmodulin-dependent protein kinase kinase 2 (Homo sapiens) (UniProt Q96RR4); conditions: Compound concentration 1000.0 nM
[7] = biological target: Histamine H3 receptor (Homo sapiens) (UniProt Q9Y5N1); conditions: Compound concentration 10.0 uM
[8] = biological target: BMP-2-inducible protein kinase (Homo sapiens) (UniProt Q9NSY1); conditions: Compound concentration 1000.0 nM
[9] = tested on: Mast/stem cell growth factor receptor Kit (Homo sapiens), P10721 [D816V]; conditions: Compound concentration 1000.0 nM
Sequence of Mast/stem cell growth factor receptor Kit (Homo sapiens), P10721 [D816V] (P10721 whole entry D816V): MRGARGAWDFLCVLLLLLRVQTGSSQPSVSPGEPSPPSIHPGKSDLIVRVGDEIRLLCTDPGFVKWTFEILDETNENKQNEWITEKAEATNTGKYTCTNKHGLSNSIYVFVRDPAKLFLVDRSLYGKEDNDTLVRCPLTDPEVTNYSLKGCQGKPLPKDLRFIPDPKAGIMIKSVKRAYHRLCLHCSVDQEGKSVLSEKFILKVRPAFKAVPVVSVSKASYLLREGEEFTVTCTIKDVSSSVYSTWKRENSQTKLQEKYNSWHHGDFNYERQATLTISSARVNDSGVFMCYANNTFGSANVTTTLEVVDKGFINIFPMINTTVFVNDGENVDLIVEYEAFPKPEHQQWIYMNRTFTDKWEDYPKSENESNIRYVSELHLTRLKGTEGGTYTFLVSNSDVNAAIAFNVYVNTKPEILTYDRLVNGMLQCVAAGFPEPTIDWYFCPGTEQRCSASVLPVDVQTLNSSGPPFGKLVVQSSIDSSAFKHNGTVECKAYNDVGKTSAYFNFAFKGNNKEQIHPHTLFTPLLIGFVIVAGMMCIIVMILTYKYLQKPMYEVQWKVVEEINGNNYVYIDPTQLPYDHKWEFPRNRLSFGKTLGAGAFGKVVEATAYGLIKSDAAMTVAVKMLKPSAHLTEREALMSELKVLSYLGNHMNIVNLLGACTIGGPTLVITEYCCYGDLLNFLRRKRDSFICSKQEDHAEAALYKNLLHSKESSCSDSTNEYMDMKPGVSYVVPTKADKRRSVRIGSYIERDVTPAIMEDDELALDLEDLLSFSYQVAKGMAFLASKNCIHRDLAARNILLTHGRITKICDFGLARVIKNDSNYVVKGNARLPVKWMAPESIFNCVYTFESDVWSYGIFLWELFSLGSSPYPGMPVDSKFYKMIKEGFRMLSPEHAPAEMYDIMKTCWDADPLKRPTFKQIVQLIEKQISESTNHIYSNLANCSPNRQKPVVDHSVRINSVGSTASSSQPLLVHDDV

[10] = biological target: Dual specificity protein kinase CLK4 (Homo sapiens) (UniProt Q9HAZ1); conditions: Compound concentration 1000.0 nM
Sequence of Dual specificity protein kinase CLK4 (Homo sapiens) (Q9HAZ1 whole entry, looked up): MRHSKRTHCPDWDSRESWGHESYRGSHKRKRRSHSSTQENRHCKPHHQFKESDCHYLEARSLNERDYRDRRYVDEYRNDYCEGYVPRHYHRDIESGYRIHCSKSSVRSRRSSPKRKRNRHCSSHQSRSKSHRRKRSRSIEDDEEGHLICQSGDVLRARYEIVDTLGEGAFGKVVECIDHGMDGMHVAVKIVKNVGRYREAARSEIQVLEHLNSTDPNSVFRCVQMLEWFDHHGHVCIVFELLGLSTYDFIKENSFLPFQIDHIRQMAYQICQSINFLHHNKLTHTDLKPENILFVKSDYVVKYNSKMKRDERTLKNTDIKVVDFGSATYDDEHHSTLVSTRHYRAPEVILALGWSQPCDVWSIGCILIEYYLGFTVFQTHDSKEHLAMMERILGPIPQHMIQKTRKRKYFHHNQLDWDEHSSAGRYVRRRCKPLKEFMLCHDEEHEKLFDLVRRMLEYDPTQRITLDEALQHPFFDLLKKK

[11] = biological target: D(1A) dopamine receptor (Homo sapiens) (UniProt P21728); conditions: Compound concentration 10.0 uM
[12] = biological target: NUAK family SNF1-like kinase 2 (Homo sapiens) (UniProt Q9H093); conditions: Compound concentration 1000.0 nM
[13] = biological target: Serine/threonine-protein kinase/endoribonuclease IRE1 (Homo sapiens) (UniProt O75460); conditions: Compound concentration 1000.0 nM
[14] = biological target: Mitotic checkpoint serine/threonine-protein kinase BUB1 (Homo sapiens) (UniProt O43683); conditions: Compound concentration 1000.0 nM
[15] = biological target: Dual specificity protein kinase TTK (Homo sapiens) (UniProt P33981); conditions: Compound concentration 1000.0 nM
Sequence of Dual specificity protein kinase TTK (Homo sapiens) (P33981 whole entry): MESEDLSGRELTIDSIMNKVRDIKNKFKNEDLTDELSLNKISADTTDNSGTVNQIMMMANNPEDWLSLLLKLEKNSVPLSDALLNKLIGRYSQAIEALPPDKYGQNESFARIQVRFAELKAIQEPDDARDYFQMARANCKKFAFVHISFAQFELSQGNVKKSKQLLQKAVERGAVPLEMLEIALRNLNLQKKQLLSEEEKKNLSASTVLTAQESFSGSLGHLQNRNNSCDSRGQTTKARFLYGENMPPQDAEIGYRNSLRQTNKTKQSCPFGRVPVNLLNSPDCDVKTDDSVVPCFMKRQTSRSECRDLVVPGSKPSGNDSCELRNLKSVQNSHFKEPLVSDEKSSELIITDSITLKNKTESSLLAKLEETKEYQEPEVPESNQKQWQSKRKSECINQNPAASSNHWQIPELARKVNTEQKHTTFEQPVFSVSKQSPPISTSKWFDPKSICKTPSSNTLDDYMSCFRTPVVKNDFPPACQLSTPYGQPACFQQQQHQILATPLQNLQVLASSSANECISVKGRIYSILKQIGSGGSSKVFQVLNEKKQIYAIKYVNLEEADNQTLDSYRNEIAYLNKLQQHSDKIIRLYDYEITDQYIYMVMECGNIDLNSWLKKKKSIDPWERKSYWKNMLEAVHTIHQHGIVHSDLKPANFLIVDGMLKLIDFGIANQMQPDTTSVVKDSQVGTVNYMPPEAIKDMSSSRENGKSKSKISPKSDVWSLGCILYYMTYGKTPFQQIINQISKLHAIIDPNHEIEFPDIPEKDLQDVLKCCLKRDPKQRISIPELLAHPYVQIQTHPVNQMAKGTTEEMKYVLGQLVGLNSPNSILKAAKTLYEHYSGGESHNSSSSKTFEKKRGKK

[16] = tested on: Epidermal growth factor receptor (Homo sapiens), P00533 [UNDEFINED MUTATION]; conditions: Compound concentration 1000.0 nM
[17] = biological target: Fibroblast growth factor receptor 3 (Homo sapiens) (UniProt P22607); conditions: Compound concentration 1000.0 nM
[18] = biological target: T1, Adenosine receptor A3 (Homo sapiens) (UniProt P0DMS8); assay: A3 (h) Eurofins-Cerep Cellular and Nuclear Receptor Functional Assays; conditions: Compound concentration 10.0 uM
T1 sequence (whole entry): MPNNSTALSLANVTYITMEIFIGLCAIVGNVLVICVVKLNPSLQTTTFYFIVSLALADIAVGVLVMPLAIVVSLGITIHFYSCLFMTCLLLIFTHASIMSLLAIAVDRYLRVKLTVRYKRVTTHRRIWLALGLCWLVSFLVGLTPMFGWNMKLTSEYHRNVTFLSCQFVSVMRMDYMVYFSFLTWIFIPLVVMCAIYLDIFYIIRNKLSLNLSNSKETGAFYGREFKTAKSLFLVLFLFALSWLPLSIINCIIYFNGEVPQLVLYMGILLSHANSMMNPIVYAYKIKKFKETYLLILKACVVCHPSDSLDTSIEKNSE

[19] = tested on: Tyrosine-protein kinase ABL1 (Homo sapiens), P00519 [T315I]; conditions: Compound concentration 1000.0 nM
[20] = biological target: Phosphatidylinositol 4,5-bisphosphate 3-kinase catalytic subunit delta isoform (Homo sapiens) (UniProt O00329); conditions: Compound concentration 1000.0 nM
[21] = biological target: Serine/threonine-protein kinase B-raf (Homo sapiens) (UniProt P15056); conditions: Compound concentration 1000.0 nM
[22] = tested on: Mast/stem cell growth factor receptor Kit (Homo sapiens), P10721 [L576P]; conditions: Compound concentration 1000.0 nM
[23] = biological target: Cyclin-dependent kinase 4 (Homo sapiens) (UniProt P11802); conditions: Compound concentration 1000.0 nM
[24] = biological target: Mitogen-activated protein kinase kinase kinase 11 (Homo sapiens) (UniProt Q16584); conditions: Compound concentration 1000.0 nM
Sequence of Mitogen-activated protein kinase kinase kinase 11 (Homo sapiens) (Q16584 whole entry, looked up): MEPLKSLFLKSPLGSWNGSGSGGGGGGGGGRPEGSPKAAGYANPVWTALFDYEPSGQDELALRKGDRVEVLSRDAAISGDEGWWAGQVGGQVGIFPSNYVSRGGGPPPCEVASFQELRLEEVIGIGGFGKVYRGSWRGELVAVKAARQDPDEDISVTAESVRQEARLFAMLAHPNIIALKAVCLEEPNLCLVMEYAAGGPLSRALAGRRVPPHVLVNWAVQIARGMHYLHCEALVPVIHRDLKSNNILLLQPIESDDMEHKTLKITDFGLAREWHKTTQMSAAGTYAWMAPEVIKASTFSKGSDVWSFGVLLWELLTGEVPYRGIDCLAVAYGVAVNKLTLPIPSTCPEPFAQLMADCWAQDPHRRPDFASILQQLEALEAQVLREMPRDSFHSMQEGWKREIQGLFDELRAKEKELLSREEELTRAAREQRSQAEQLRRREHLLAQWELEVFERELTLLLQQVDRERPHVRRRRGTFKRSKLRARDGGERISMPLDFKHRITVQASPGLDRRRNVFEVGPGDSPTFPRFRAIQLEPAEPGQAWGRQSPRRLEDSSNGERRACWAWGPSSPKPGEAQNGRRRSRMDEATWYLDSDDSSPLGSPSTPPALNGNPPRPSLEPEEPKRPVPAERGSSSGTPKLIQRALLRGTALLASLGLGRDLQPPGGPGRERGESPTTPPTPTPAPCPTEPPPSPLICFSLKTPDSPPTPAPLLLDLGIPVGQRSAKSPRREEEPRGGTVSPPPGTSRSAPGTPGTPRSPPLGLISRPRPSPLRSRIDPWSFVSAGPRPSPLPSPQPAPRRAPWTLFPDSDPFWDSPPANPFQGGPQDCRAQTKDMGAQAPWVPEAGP

[25] = biological target: cAMP-dependent protein kinase catalytic subunit PRKX (Homo sapiens) (UniProt P51817); conditions: Compound concentration 1000.0 nM
[26] = biological target: Serine/threonine-protein kinase 25 (Homo sapiens) (UniProt O00506); conditions: Compound concentration 1000.0 nM
[27] = tested on: Tyrosine-protein kinase ABL1 (Homo sapiens), P00519 [Q252H]; conditions: Compound concentration 1000.0 nM
[28] = biological target: Cyclin-dependent kinase 9 (Homo sapiens) (UniProt P50750); conditions: Compound concentration 1000.0 nM
[29] = biological target: Interleukin-1 receptor-associated kinase 3 (Homo sapiens) (UniProt Q9Y616); conditions: Compound concentration 1000.0 nM
[30] = biological target: Receptor-interacting serine/threonine-protein kinase 1 (Homo sapiens) (UniProt Q13546); conditions: Compound concentration 1000.0 nM
[31] = biological target: Serine/threonine-protein kinase 16 (Homo sapiens) (UniProt O75716); conditions: Compound concentration 1000.0 nM
Sequence of Serine/threonine-protein kinase 16 (Homo sapiens) (O75716 whole entry): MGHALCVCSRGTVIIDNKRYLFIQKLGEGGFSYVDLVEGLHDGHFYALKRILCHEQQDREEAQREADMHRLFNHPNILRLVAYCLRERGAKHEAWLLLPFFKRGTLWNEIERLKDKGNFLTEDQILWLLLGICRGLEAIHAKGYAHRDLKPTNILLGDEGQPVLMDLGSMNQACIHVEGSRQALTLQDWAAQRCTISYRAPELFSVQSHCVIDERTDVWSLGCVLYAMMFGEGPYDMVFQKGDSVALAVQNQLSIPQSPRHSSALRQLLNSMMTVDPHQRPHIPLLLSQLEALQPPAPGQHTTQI

[32] = biological target: Tyrosine-protein kinase Srms (Homo sapiens) (UniProt Q9H3Y6); conditions: Compound concentration 1000.0 nM
[33] = biological target: Histamine H2 receptor (Homo sapiens) (UniProt P25021); assay: H2 (h) Eurofins-Cerep Cellular and Nuclear Receptor Functional Assays; conditions: Compound concentration 10.0 uM
Sequence of Histamine H2 receptor (Homo sapiens) (P25021 whole entry): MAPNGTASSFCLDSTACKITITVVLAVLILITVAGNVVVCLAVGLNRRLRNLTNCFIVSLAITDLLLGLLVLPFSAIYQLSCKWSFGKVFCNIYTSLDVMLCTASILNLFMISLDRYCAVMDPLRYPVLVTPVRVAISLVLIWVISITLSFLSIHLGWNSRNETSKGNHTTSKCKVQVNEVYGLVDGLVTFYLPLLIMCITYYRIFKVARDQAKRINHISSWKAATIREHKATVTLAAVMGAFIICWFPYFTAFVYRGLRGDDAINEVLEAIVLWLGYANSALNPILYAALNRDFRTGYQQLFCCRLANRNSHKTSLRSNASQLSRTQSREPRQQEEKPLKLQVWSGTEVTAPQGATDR

[34] = biological target: Serine/threonine-protein kinase MARK2 (Homo sapiens) (UniProt Q7KZI7); conditions: Compound concentration 1000.0 nM
[35] = biological target: Serine/threonine-protein kinase PLK2 (Homo sapiens) (UniProt Q9NYY3); conditions: Compound concentration 1000.0 nM
Sequence of Serine/threonine-protein kinase PLK2 (Homo sapiens) (Q9NYY3 whole entry, looked up): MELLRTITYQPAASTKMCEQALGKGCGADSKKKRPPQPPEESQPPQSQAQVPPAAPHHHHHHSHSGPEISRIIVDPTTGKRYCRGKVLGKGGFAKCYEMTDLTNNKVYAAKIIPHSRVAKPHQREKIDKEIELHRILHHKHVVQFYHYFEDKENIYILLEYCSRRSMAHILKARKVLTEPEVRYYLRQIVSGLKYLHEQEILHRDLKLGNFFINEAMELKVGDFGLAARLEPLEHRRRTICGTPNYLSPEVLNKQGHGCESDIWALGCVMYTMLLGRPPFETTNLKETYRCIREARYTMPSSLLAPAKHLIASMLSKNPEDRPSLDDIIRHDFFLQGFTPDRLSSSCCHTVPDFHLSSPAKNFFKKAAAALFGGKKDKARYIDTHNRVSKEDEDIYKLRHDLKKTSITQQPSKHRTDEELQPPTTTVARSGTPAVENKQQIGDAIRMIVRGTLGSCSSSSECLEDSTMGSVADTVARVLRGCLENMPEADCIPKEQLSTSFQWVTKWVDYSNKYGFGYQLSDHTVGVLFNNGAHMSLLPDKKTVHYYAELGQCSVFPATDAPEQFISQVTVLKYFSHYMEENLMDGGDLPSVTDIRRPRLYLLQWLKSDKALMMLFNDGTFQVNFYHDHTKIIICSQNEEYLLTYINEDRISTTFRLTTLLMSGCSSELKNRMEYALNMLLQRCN

[36] = biological target: Tyrosine-protein kinase ITK/TSK (Homo sapiens) (UniProt Q08881); conditions: Compound concentration 1000.0 nM
[37] = biological target: Hormonally up-regulated neu tumor-associated kinase (Homo sapiens) (UniProt P57058); conditions: Compound concentration 1000.0 nM

| Structure (SMILES) | residual activity [1] [%] | inhibition [2] [%] | residual activity [3] [%] | residual activity [4] [%] | residual activity [5] [%] | residual activity [6] [%] | inhibition [7] [%] | residual activity [8] [%] | residual activity [9] [%] | residual activity [10] [%] | inhibition [11] [%] | residual activity [12] [%] | residual activity [13] [%] | residual activity [14] [%] | residual activity [15] [%] | residual activity [16] [%] | residual activity [17] [%] | % Inhibition of Control Agonist Response (Mean n=2) [18] [%] | % of Control Agonist Response (Mean n=2) [18] [%] | residual activity [19] [%] | further results |
| --- | --- | --- | --- | --- | --- | --- | --- | --- | --- | --- | --- | --- | --- | --- | --- | --- | --- | --- | --- | --- | --- |
| O=C(N1CCS(=O)(=O)CC1)N1C[C@H](c2ccc(OC(F)(F)F)cc2)C[C@H](c2nc(C3CC3)no2)C1 [BAY-386] | 100 | -2.11 | 93 | 100 | 100 | 100 | -6.71 | 97 | 100 | 100 | 3.2 | 100 | 96 | 100 | 82 | 77 | 100 | -13.1 | 2.5 | 100 | residual activity [20]: 97%; residual activity [21]: 100%; residual activity [22]: 100%; residual activity [23]: 96%; residual activity [24]: 100%; residual activity [25]: 100%; residual activity [26]: 93%; residual activity [27]: 100%; residual activity [28]: 100%; residual activity [29]: 100%; residual activity [30]: 100%; residual activity [31]: 100%; residual activity [32]: 100%; % Inhibition of Control Agonist Response (Mean n=2) [33]: 9.6%; % of Control Agonist Response (Mean n=2) [33]: -0.7%; residual activity [34]: 100%; residual activity [35]: 100%; residual activity [36]: 100%; residual activity [37]: 100% |
| Cc1noc([C@H]2C[C@@H](c3ccc(C(F)(F)F)cc3)CN(C(=O)N3CCS(=O)(=O)C3)C2)n1 [BAY-448] | 87 | -1.45 | 100 | 85 | 100 | 100 | 5.78 | 100 | 100 | 83 | 10.6 | 100 | 100 | 100 | 100 | 83 | 100 | 12.2 | 19.2 | 69 | residual activity [20]: 100%; residual activity [21]: 97%; residual activity [22]: 100%; residual activity [23]: 100%; residual activity [24]: 86%; residual activity [25]: 100%; residual activity [26]: 89%; residual activity [27]: 100%; residual activity [28]: 100%; residual activity [29]: 100%; residual activity [30]: 100%; residual activity [31]: 100%; residual activity [32]: 89%; % Inhibition of Control Agonist Response (Mean n=2) [33]: -2.8%; % of Control Agonist Response (Mean n=2) [33]: 2.6%; residual activity [34]: 100%; residual activity [35]: 100%; residual activity [36]: 100%; residual activity [37]: 100% |
